Laboratory results published in PubChem BioAssay (NCI).
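Values below derive from 48-hour exposures of cells grown in 96-well plates, with endpoints linearly interpolated between the two concentrations bracketing the appropriate inhibition level. GI50: concentration for 50% inhibition of growth. At the TGI there is no net growth.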

Assays:
Experiment in all cases: NCI-60 cell line screen, 48 h
786-0 renal = tested on: 786-0 renal
A498 renal = tested on: A498 renal
A549 NSCLC = tested on: A549 NSCLC
ACHN renal = tested on: ACHN renal
BT-549 breast = tested on: BT-549 breast
CAKI-1 renal = tested on: CAKI-1 renal
CCRF-CEM leukemia = tested on: CCRF-CEM leukemia
COLO 205 colon = tested on: COLO 205 colon
DU-145 prostate = tested on: DU-145 prostate
HCC-2998 colon = tested on: HCC-2998 colon
HCT-116 colon = tested on: HCT-116 colon
HCT-15 colon = tested on: HCT-15 colon
HL-60(TB) leukemia = tested on: HL-60(TB) leukemia
HOP-62 NSCLC = tested on: HOP-62 NSCLC
HOP-92 NSCLC = tested on: HOP-92 NSCLC
HS 578T breast = tested on: HS 578T breast
HT29 colon = tested on: HT29 colon
IGROV1 ovarian = tested on: IGROV1 ovarian
K-562 leukemia = tested on: K-562 leukemia
KM12 colon = tested on: KM12 colon
LOX IMVI melanoma = tested on: LOX IMVI melanoma
M14 melanoma = tested on: M14 melanoma
MALME-3M melanoma = tested on: MALME-3M melanoma
MCF7 breast = tested on: MCF7 breast
MDA-MB-231 breast = tested on: MDA-MB-231 breast
MDA-MB-435 = tested on: MDA-MB-435
MOLT-4 leukemia = tested on: MOLT-4 leukemia
NCI-H226 lung = tested on: NCI-H226 lung

Which results are given for CCN(Cc1ccccc1F)c1ccc(CO)c(Cl)c1?
GI50 (786-0 renal): 15.9 µM; TGI (786-0 renal): 41 µM; GI50 (A498 renal): < 0.0179 µM; TGI (A498 renal): 0.0594 µM; GI50 (A549 NSCLC): 1.03 µM; TGI (A549 NSCLC): 21.8 µM; GI50 (ACHN renal): 19.2 µM; TGI (ACHN renal): > 53.4 µM; GI50 (BT-549 breast): 15.8 µM; TGI (BT-549 breast): 30.6 µM; GI50 (CAKI-1 renal): 3.81 µM; TGI (CAKI-1 renal): 39.9 µM; GI50 (CCRF-CEM leukemia): 24.2 µM; TGI (CCRF-CEM leukemia): > 75.4 µM; GI50 (COLO 205 colon): 2.45 µM; TGI (COLO 205 colon): 7.86 µM; GI50 (DU-145 prostate): 18.4 µM; TGI (DU-145 prostate): > 60 µM; GI50 (HCC-2998 colon): 8.41 µM; TGI (HCC-2998 colon): 25 µM; GI50 (HCT-116 colon): < 0.0273 µM; TGI (HCT-116 colon): 11.3 µM; GI50 (HCT-15 colon): 11.5 µM; TGI (HCT-15 colon): 47.2 µM; GI50 (HL-60(TB) leukemia): 17.7 µM; TGI (HL-60(TB) leukemia): 47.3 µM; GI50 (HOP-62 NSCLC): 1.34 µM; TGI (HOP-62 NSCLC): 17.8 µM; GI50 (HOP-92 NSCLC): 0.301 µM; TGI (HOP-92 NSCLC): 8.72 µM; GI50 (HS 578T breast): 26.5 µM; TGI (HS 578T breast): > 66.4 µM; GI50 (HT29 colon): 3.38 µM; TGI (HT29 colon): 21.4 µM; GI50 (IGROV1 ovarian): < 0.0231 µM; GI50 (K-562 leukemia): 0.535 µM; TGI (K-562 leukemia): > 39 µM; GI50 (KM12 colon): 18.5 µM; TGI (KM12 colon): 47.7 µM; GI50 (LOX IMVI melanoma): 20.3 µM; TGI (LOX IMVI melanoma): 44.2 µM; GI50 (M14 melanoma): 19.9 µM; TGI (M14 melanoma): 41.7 µM; GI50 (MALME-3M melanoma): 17.7 µM; TGI (MALME-3M melanoma): 39.5 µM; GI50 (MCF7 breast): 0.0892 µM; TGI (MCF7 breast): 12.7 µM; GI50 (MDA-MB-231 breast): 16.3 µM; TGI (MDA-MB-231 breast): 41.7 µM; GI50 (MDA-MB-435): 17.2 µM; TGI (MDA-MB-435): 40.2 µM; GI50 (MOLT-4 leukemia): 22.5 µM; TGI (MOLT-4 leukemia): 56.2 µM; GI50 (NCI-H226 lung): 0.0137 µM; TGI (NCI-H226 lung): 0.0511 µM
